Assay results published in patent publication EP0584797A2, “Novel cephalosporin compounds and processes for the preparation thereof” (LUCKY LTD., priority 1992, dated 1994).
Values after ≈ are worked out from the molar mass of the structure shown.

What was measured:
Assay in all cases: minimal inhibitory concentration, two-fold agar dilution
Assay type in all cases: cell-based
[1] = test system: Enterobacter cloacae ATCC 27508; conditions: ATCC27508, Muller-Hinton agar, 37°C, 20 hours, read-out: MIC values against the standard strains
How it was run: (§1)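 Compounds were serially diluted two-fold into Mueller-Hinton agar, and each plate was spot-inoculated with the test strain at 10⁷ CFU per ml. Plates were incubated at 37°C for 20 hours before MIC values were read.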

[2] = test system: Pseudomonas aeruginosa ATCC 10145; conditions: ATCC10145, Muller-Hinton agar, 37°C, 20 hours, read-out: MIC values against the standard strains
How it was run: as §1

[3] = test system: Acinetobacter calcoaceticus ATCC 15437; conditions: ATCC15437, Muller-Hinton agar, 37°C, 20 hours, read-out: MIC values against the standard strains
How it was run: as §1

[4] = test system: Pseudomonas aeruginosa ATCC 27853; conditions: ATCC27853, Muller-Hinton agar, 37°C, 20 hours, read-out: MIC values against the standard strains
How it was run: as §1

[5] = test system: Citrobacter freundii ATCC 8090; conditions: ATCC8090, Muller-Hinton agar, 37°C, 20 hours, read-out: MIC values against the standard strains
How it was run: as §1

[6] = test system: Serratia marcescens ATCC 27117; conditions: ATCC27117, Muller-Hinton agar, 37°C, 20 hours, read-out: MIC values against the standard strains
How it was run: as §1

[7] = test system: Klebsiella pneumoniae ATCC 10031; conditions: ATCC10031, Muller-Hinton agar, 37°C, 20 hours, read-out: MIC values against the standard strains
How it was run: as §1

[8] = test system: Staphylococcus aureus ATCC 10537; conditions: ATCC10537, Muller-Hinton agar, 37°C, 20 hours, read-out: MIC values against the standard strains
How it was run: as §1

[9] = test system: Proteus vulgaris ATCC 6059; conditions: ATCC6059, Muller-Hinton agar, 37°C, 20 hours, read-out: MIC values against the standard strains
How it was run: as §1

[10] = test system: Pseudomonas aeruginosa ATCC 25619; conditions: ATCC25619, Muller-Hinton agar, 37°C, 20 hours, read-out: MIC values against the standard strains
How it was run: as §1

[11] = test system: Streptococcus faecalis ATCC 29212; conditions: Enterococcus faecalis, ATCC29212; Muller-Hinton agar; 37°C; 20 hours; read-out: MIC values against the standard strains
How it was run: as §1

[12] = test system: Staphylococcus epidermidis ATCC 12228; conditions: ATCC12228, Muller-Hinton agar, 37°C, 20 hours, read-out: MIC values against the standard strains
How it was run: as §1

[13] = test system: Salmonella typhimurium ATCC 14028; conditions: Salmonella enterica; Muller-Hinton agar; 37°C; 20 hours; read-out: MIC values against the standard strains
How it was run: as §1

[14] = test system: Bacillus megaterium ATCC 9885; conditions: Priestia megaterium, ATCC9885; Muller-Hinton agar; 37°C; 20 hours; read-out: MIC values against the standard strains
How it was run: as §1

[15] = test system: Shigella flexneri ATCC 11836; conditions: ATCC11836, Muller-Hinton agar, 37°C, 20 hours, read-out: MIC values against the standard strains
How it was run: as §1

[16] = test system: Staphylococcus aureus ATCC 6538p; conditions: ATCC6538P, Muller-Hinton agar, 37°C, 20 hours, read-out: MIC values against the standard strains
How it was run: as §1

[17] = test system: Proteus mirabilis ATCC 25933; conditions: ATCC25933, Muller-Hinton agar, 37°C, 20 hours, read-out: MIC values against the standard strains
How it was run: as §1

[18] = test system: Escherichia coli ATCC 10536; conditions: ATCC10536, Muller-Hinton agar, 37°C, 20 hours, read-out: MIC values against the standard strains
How it was run: as §1

[19] = test system: Bacillus cereus ATCC 11778; conditions: ATCC11778, Muller-Hinton agar, 37°C, 20 hours, read-out: MIC values against the standard strains
How it was run: as §1

[20] = test system: Shigella sonnei ATCC 11060; conditions: ATCC11060, Muller-Hinton agar, 37°C, 20 hours, read-out: MIC values against the standard strains
How it was run: as §1

[21] = test system: Morganella morganii ATCC 8076h; conditions: ATCC8076H, Muller-Hinton agar, 37°C, 20 hours, read-out: MIC values against the standard strains
How it was run: as §1

[22] = test system: Providencia rettgeri ATCC 9250; conditions: ATCC9250, Muller-Hinton agar, 37°C, 20 hours, read-out: MIC values against the standard strains
How it was run: as §1

[23] = test system: Enterobacter aerogenes ATCC 29751; conditions: Klebsiella aerogenes, ATCC29751; Muller-Hinton agar; 37°C; 20 hours; read-out: MIC values against the standard strains
How it was run: as §1

[24] = test system: Micrococcus luteus ATCC 9341; conditions: ATCC9341, Muller-Hinton agar, 37°C, 20 hours, read-out: MIC values against the standard strains
How it was run: as §1

[25] = test system: Escherichia coli ATCC 25922; conditions: ATCC25922, Muller-Hinton agar, 37°C, 20 hours, read-out: MIC values against the standard strains
How it was run: as §1

Row | SMILES | MIC [1] [µg/mL] | MIC [2] [µg/mL] | MIC [3] [µg/mL] | MIC [4] [µg/mL] | MIC [5] [µg/mL] | MIC [6] [µg/mL] | MIC [7] [µg/mL] | MIC [8] [µg/mL] | MIC [9] [µg/mL] | MIC [10] [µg/mL] | MIC [11] [µg/mL] | MIC [12] [µg/mL] | MIC [13] [µg/mL] | MIC [14] [µg/mL] | MIC [15] [µg/mL] | MIC [16] [µg/mL] | MIC [17] [µg/mL] | MIC [18] [µg/mL] | MIC [19] [µg/mL] | MIC [20] [µg/mL] | further results
1 | CO/N=C(\C(=O)N[C@@H]1C(=O)N2C(C(=O)[O-])=C(CSc3nc(N)c(N)c(N)[n+]3C)CS[C@H]12)c1csc(N)n1 [Example 7, 7-[(Z)-2-(2-aminothiazol-4-yl)-2-(methoxyimino)acetamido]-3-(4,5,6-triamino-1-methylpyrimidinium-2-yl)thiomethyl-3-cephem-4-carboxylate] | 0.063 (≈ 0.111 µM) | 32 (≈ 56.5 µM) | 4 (≈ 7.06 µM) | 32 (≈ 56.5 µM) | 0.063 (≈ 0.111 µM) | 0.13 (≈ 0.229 µM) | 0.016 (≈ 0.0282 µM) | 0.13 (≈ 0.229 µM) | 0.13 (≈ 0.229 µM) | 4 (≈ 7.06 µM) | 128 (≈ 226 µM) | 0.13 (≈ 0.229 µM) | 0.13 (≈ 0.229 µM) | 0.13 (≈ 0.229 µM) | 0.031 (≈ 0.0547 µM) | 0.13 (≈ 0.229 µM) | 0.13 (≈ 0.229 µM) | 0.063 (≈ 0.111 µM) | 16 (≈ 28.2 µM) | 0.13 (≈ 0.229 µM) | MIC [21]: ≤ 8 ng/mL; MIC [22]: ≤ 8 ng/mL; MIC [23]: ≤ 0.008 µg/mL; MIC [24]: 0.063 µg/mL (≈ 0.111 µM); MIC [25]: 0.063 µg/mL (≈ 0.111 µM)
2 | C[n+]1c(SCC2=C(C(=O)[O-])N3C(=O)[C@@H](NC(=O)/C(=N\OC(C)(C)C(=O)O)c4csc(N)n4)[C@H]3SC2)nc(N)c(N)c1N [Example 1] | 0.016 (≈ 0.0251 µM) | 2 (≈ 3.13 µM) | 8 (≈ 12.5 µM) | 1 (≈ 1.57 µM) | 0.13 (≈ 0.204 µM) | 0.25 (≈ 0.391 µM) | 0.063 (≈ 0.0986 µM) | 2 (≈ 3.13 µM) | 0.063 (≈ 0.0986 µM) | 1 (≈ 1.57 µM) | > 128 | 2 (≈ 3.13 µM) | 0.25 (≈ 0.391 µM) | 0.25 (≈ 0.391 µM) | 0.031 (≈ 0.0485 µM) | 8 (≈ 12.5 µM) | 0.063 (≈ 0.0986 µM) | 0.13 (≈ 0.204 µM) | 128 (≈ 200 µM) | 0.13 (≈ 0.204 µM) | MIC [21]: ≤ 8 ng/mL; MIC [22]: ≤ 8 ng/mL; MIC [23]: 2 µg/mL (≈ 3.13 µM); MIC [24]: 0.25 µg/mL (≈ 0.391 µM); MIC [25]: 0.063 µg/mL (≈ 0.0986 µM)
3 | CCO/N=C(\C(=O)N[C@@H]1C(=O)N2C(C(=O)[O-])=C(CSc3nc(N)cc[n+]3C)CS[C@H]12)c1nsc(N)n1 [Example 6, 7-[(Z)-2-(5-amino-1,2,4-thiadiazol-3-yl)-2-(ethoxyimino)acetamido]-3-(4-amino-1-methylpyrimidinium-2-yl)thiomethyl-3-cephem-4-carboxylate] | 0.063 (≈ 0.114 µM) | 4 (≈ 7.25 µM) | 1 (≈ 1.81 µM) | 2 (≈ 3.63 µM) | 0.063 (≈ 0.114 µM) | 0.5 (≈ 0.906 µM) | ≤ 0.008 | 0.13 (≈ 0.236 µM) | 0.5 (≈ 0.906 µM) | 0.5 (≈ 0.906 µM) | 32 (≈ 58 µM) | 0.13 (≈ 0.236 µM) | 0.5 (≈ 0.906 µM) | 0.063 (≈ 0.114 µM) | 0.063 (≈ 0.114 µM) | 0.13 (≈ 0.236 µM) | 0.5 (≈ 0.906 µM) | 0.063 (≈ 0.114 µM) | 16 (≈ 29 µM) | 0.25 (≈ 0.453 µM) | MIC [21]: ≤ 8 ng/mL; MIC [22]: ≤ 8 ng/mL; MIC [23]: 0.016 µg/mL (≈ 0.029 µM); MIC [24]: 0.063 µg/mL (≈ 0.114 µM); MIC [25]: 0.063 µg/mL (≈ 0.114 µM)
4 | CCO/N=C(\C(=O)N[C@@H]1C(=O)N2C(C(=O)[O-])=C(CSc3nc(N)c(N)c(N)[n+]3C)CS[C@H]12)c1nsc(N)n1 [Example 5] | 0.13 (≈ 0.223 µM) | 4 (≈ 6.88 µM) | 2 (≈ 3.44 µM) | 2 (≈ 3.44 µM) | 0.13 (≈ 0.223 µM) | 0.25 (≈ 0.43 µM) | 0.016 (≈ 0.0275 µM) | 0.25 (≈ 0.43 µM) | 0.5 (≈ 0.86 µM) | 0.5 (≈ 0.86 µM) | 32 (≈ 55 µM) | 0.25 (≈ 0.43 µM) | 0.25 (≈ 0.43 µM) | 0.063 (≈ 0.108 µM) | 0.031 (≈ 0.0533 µM) | 0.5 (≈ 0.86 µM) | 0.5 (≈ 0.86 µM) | 0.063 (≈ 0.108 µM) | 16 (≈ 27.5 µM) | 0.25 (≈ 0.43 µM) | MIC [21]: ≤ 8 ng/mL; MIC [22]: ≤ 8 ng/mL; MIC [23]: 0.016 µg/mL (≈ 0.0275 µM); MIC [24]: 0.031 µg/mL (≈ 0.0533 µM); MIC [25]: 0.063 µg/mL (≈ 0.108 µM)
